Entries after “also recorded” stand apart in the source; their conditions may differ. Read-outs that look alike come from different tables or passages of the source.
Tests used:
Type in all cases: cell-based, human
TCD4, FoxP3 [1] = assay: Selection or depletion of TCD4, FoxP3 in PBMC stimulated with anti-CD3/CD28 and IL-2 in presence of drug; details: for Selection of TCD4, FoxP3 in surviving population at lethal dose: freshly derived PBMC, day 7; for Selection or depletion of TCD4, FoxP3, dose dependence: thawed PBMC, 7 days
Method: (§1) Culture Conditions: Acellular stimulation was accomplished as previously described using soluble anti-CD3—30 ng/mL, anti-CD28—100 ng/mL, and human IL-2—50 IU/mL, as previously described. […] Acellular stimulation experiments received addition of toxic drug or treatment on the same day as stimulation.
Cultured T cells were washed in FACS staining solution[95] before surface antibody staining was performed in FACS staining solution with fluorochrome-conjugated antibodies at 4° C. for at least 30 minutes. Intracellular transcription factor and cytokine staining utilized the FoxP3/transcription factor staining buffer set manufacturer's protocol (eBioscience, 00-5523-00), and was performed following surface staining. The BD FACSCalibur (BD Biosciences) analyzed most samples expressing FoxP3. Flow cytometry data analysis utilized FlowJo v 10.0.5 (Tree Star Inc., Ashland, Oreg.). Flow cytometric imaging of cells stained for phosphorylated antigens was accomplished using the ImageStreamX Mark II (Amnis, Seattle, Wash.) with the following protocol; after surface staining, samples were fixed in 100% methanol (Sigma) for 1 hour at 4° C. before washing and staining in FoxP3/transcription factor staining buffer set wash buffer as outlined by the manufacturer's protocol. Analysis of image cytometry data utilized Amnis IDEAS v 6.0.
Drug Selection of TCD4, FoxP3 by MTX Occurs in Part Through Toxicity. In order to determine how MTX contributes to the selection of TCD4, FoxP3, freshly derived PBMC were stimulated with anti-CD3/CD28 antibodies and IL-2 in the presence of cytotoxic drugs or lethal γ-irradiation. […] See Bar-Nun S. et al., Biochimica et biophysica acta 1983, 741(1):123-127. […] See Cao M. et al., International journal of radiation biology 2011, 87(1):71-80.

Treg = assay: Sorted Treg and Teff treated with drug for 7 days, co-cultured with AaPC to Day 21; details: for Expression of CD25, CTLA-4, or loss of IL-2: Day 21; for Expression of Treg-specific marker LAP: Day 21, early drug treatment
Source text: Healthy donor derived peripheral blood from MDACC Blood Bank, Houston, Tex., was subjected to density gradient centrifugation to isolate mononuclear cells which were either rested in complete media (CM) or frozen as previously outlined. The use of rested or frozen peripheral blood derived mononuclear cells (PBMC) is outlined in each experiment. T cells from PBMC were stimulated using thawed OKT3 antibody-loaded K562 clone #4, an activating and propagating cell (AaPC). See Singh H, et al, PloS one 2013, 8(5). The presence of mycoplasma was tested in AaPC before stimulation of T cells. Cell counting was accomplished by 0.1% Trypan Blue (Sigma-Aldrich, T8154) exclusion using automated cell counting (Nexcelcom, Lawrence, Mass.). Cell Isolation was accomplished using magnetic bead based sorting with the CD4+, CD25+ Regulatory T Cell Isolation Kit following the manufacturer's instructions (Miltenyi Biotec, San Diego, Calif., 130-091-301). Briefly, CD4^+ T cells were negatively selected before sorting one time with anti-CD25 beads was used to differentiate between effector T cells (CD25^neg) and T^reg (CD25^pos).
Sorted Treg Differentiate the Effects of MTX, 5-FU, and G418 on Selection in Bulk PBMC. Magnetic sorting for CD4 and CD25 expressing PBMC yielded a CD4+ CD25+ population that is widely considered to contain Treg, and a CD25neg population of effector T cells (Teff). See Miyara M. et al., Immunity 2009, 30(6):899-911. These populations were treated with the same concentrations of MTX, 5-FU, G418, or no treatment, as above, for the first 7 days of co-culture with AaPC. After this period of time, co-culture continued without drug by stimulating with AaPC every 7 days until Day 21. Cells were assayed at this time for expression of CD25, CTLA-4, LAP, and IL-2, as before. The experimental outline can be seen in FIG. 15A. A [^3H] thymidine incorporation assay was also performed to determine the effect of each drug on the functionality of propagated Treg.

Teff = assay: [3H] thymidine incorporation suppression assay, treated Treg mixed with untreated Teff; details: 72 hour suppression assay
Method: A thymidine incorporation assay was performed with anti-CD3/CD28 and IL-2 used to stimulate each well containing 2*10^5 viable cells. Varying ratios of effector T cells (Teff) to Treg were combined in each well and all wells were run in triplicate in U-bottom 96 well plates. At 48 hours 1 μCi [^3H] Thymidine (Perkin-Elmer, Waltham, Mass.) was added to each well, and 24 hours later the cells were assessed for radioactivity on a Top Count NXT (Perkin-Elmer). Treg mediated suppression of growth was determined by the following equation: (No Treatment Teff [cpm]−(Treg & No Treatment Teff [cpm]))/No Treatment Teff [cpm].

PBMC = system: PBMC
Method: as §1
Drug Selection of TCD4, FoxP3 by MTX Occurs in Part Through Toxicity. In order to determine how MTX contributes to the selection of TCD4, FoxP3, freshly derived PBMC were stimulated with anti-CD3/CD28 antibodies and IL-2 in the presence of cytotoxic drugs or lethal γ-irradiation. After 7 days there was a significant difference in survival markers Annexin V and 7-AAD in stimulated T cells receiving any cytotoxic insult with stimulation (FIG. 1B-I). The selection of TCD4, FoxP3 was not as consistent as cytotoxicity. […] With the exception of ribosomal elongation inhibitor G418, each cytotoxic treatment appeared to increase the percentage of surviving TCD4, FoxP3. See Bar-Nun S. et al., Biochimica et biophysica acta 1983, 741(1):123-127. […] Without wishing to be bound by theory, this pathway is likely related to the reduced proliferation rate of Treg, and appears to be ribosomally mediated as G418 can inhibit this general trend of increasing TCD4, FoxP3 percentage. See Cao M. et al., International journal of radiation biology 2011, 87(1):71-80.

TCD4, FoxP3 [2] = assay: Depletion of TCD4, FoxP3 in resting, unstimulated PBMC
Source text: Representative flow diagrams of resting PBMC in FIG. 14D—upper panel show the loss in expression of FoxP3 for CD4+ T cells after treatment with G418. […] Thus, […] TCD4, FoxP3 are depleted following treatment with aminoglycoside G418.

Jurkat = assay: AThyR transgene selection in electroporated Jurkat, eGFP+ viable cells by PI exclusion; details: anti-folate toxicity
Method: The Amaxa Nucleofector® II (Lonza, Allendale, N.J.) was used to electroporate both Jurkat and human PBMC. Electroporation of Jurkat cells utilized a modified buffer (Chicaybam et al., Proceedings of the National Academy of Sciences of the United States of America 2002, 99(6):3400-3405) containing 5 mM KCl, 15 mM MgCl2, 120 mM Na2HPO4/NaH2PO4, pH 7.2, and 50 mM DMSO, where 10^6 Jurkat cells per cuvette were electroporated using program T-14 before immediate transfer to CM. The addition of drug occurred 48 hours after electroporation and cell culture remained undisturbed until sampling for gene expression on days 10-12 post electroporation. Human PBMC electroporation followed a previously described protocol (Rushworth et al., supra). […]
To test the enhanced survival of each AThyR, constructs individually expressing DHFR^FS, TYMS^SS, and NeoR were ligated into the same backbone containing Sleeping Beauty (SB) transposable elements upstream of eGFP (FIG. 1B), eGFP was used to track the predominance of surviving genetically-modified T cells. […] Jurkat were assessed for eGFP expression in viable cells by propidium iodide (PI) exclusion on day 10-12 (FIG. 1C). […] Overall survival and mean fluorescence intensity (MFI) of eGFP are also given in FIG. 2AI and AII, respectively.

| Compound | Selection of TCD4, FoxP3 in surviving population at lethal dose (TCD4, FoxP3 [1]) | Expression of CD25, CTLA-4, or loss of IL-2 (Treg) | Expression of Treg-specific marker LAP (Treg) | Suppression by treated Treg above untreated Treg (Teff) | Selection or depletion of TCD4, FoxP3, dose dependence (TCD4, FoxP3 [1]) | Cytotoxicity, dose dependence (PBMC) | other results |
| --- | --- | --- | --- | --- | --- | --- | --- |
| O=c1[nH]cc(F)c(=O)[nH]1 [5-FU, 5-fluorouracil] | Significant increases | no significant difference | significantly increased | improved suppression |  |  |  |
| CN[C@@H]1[C@@H](O)[C@@H](O[C@@H]2[C@@H](O)[C@H](O[C@H]3O[C@H]([C@@H](C)O)[C@@H](O)[C@H](O)[C@H]3N)[C@@H](N)C[C@H]2N)OC[C@]1(C)O [G418] | depleted |  |  |  | significantly depleted TCD4, FoxP3 at two moderate drug doses; also recorded: Depletion |  | Cytotoxicity, dose dependence (PBMC; thawed PBMC, 7 days): significantly cytotoxic at all doses tested; Depletion of TCD4, FoxP3 under resting conditions (TCD4, FoxP3 [2]; PBMC rested in CM 9 days): Significant depletion; Depletion of CD4+, FoxP3+, Ki-67+ cells (TCD4, FoxP3 [2]; resting PBMC, 9 days): significant G418 mediated depletion; Depletion of CD4+, FoxP3+, Ki-67neg cells (TCD4, FoxP3 [2]; resting PBMC, 9 days): not significantly depleted; Surviving TCD4, FoxP3 in the Treg compartment (Treg; Day 21, drug for first 7 days): persistently decreased surviving Treg; Treg markers (CD25, CTLA-4, decreased IL-2, LAP) with FoxP3 expression (Treg; after stimulation on day 21): decreased |
| CN(Cc1cnc2nc(N)nc(N)c2n1)c1ccc(C(=O)N[C@@H](CCC(=O)O)C(=O)O)cc1 [MTX, methotrexate] | Significant increases | no significant difference | significantly increased | improved suppression | significant elevation of TCD4, FoxP3, at lower doses | cytotoxic at all doses tested | Relative toxicity to T cells (Jurkat): more toxic to T cells than Pem |
| CO[C@H]1C[C@@H]2CC[C@@H](C)[C@@](O)(O2)C(=O)C(=O)N2CCCC[C@H]2C(=O)O[C@H]([C@H](C)C[C@@H]2CC[C@@H](O)[C@H](OC)C2)CC(=O)[C@H](C)/C=C(\C)[C@@H](O)[C@@H](OC)C(=O)[C@H](C)C[C@H](C)/C=C/C=C/C=C/1C [Rapamycin] |  |  |  |  |  | only occurred at the highest doses |  |
| Cc1c(N)nc([C@H](CC(N)=O)NC[C@H](N)C(N)=O)nc1C(=O)N[C@H](C(=O)N[C@H](C)[C@@H](O)[C@H](C)C(=O)N[C@H](C(=O)NCCC1=N[C@@H](c2nc(C(=O)NCCCCN=C(N)N)cs2)CS1)[C@@H](C)O)[C@@H](O[C@@H]1O[C@@H](CO)[C@@H](O)[C@H](O)[C@@H]1O[C@H]1O[C@H](CO)[C@@H](O)[C@H](OC(N)=O)[C@@H]1O)c1cnc[nH]1 [Zeocin] |  |  |  |  | insignificant |  |  |
| gentamicin |  |  |  |  |  |  | Depletion of TCD4, FoxP3 in resting PBMC (TCD4, FoxP3 [2]; 7 days): depletion of TCD4, FoxP3 |

From US10808230B2, “Selection methods for genetically-modified T cells” (BOARD OF REGENTS, THE UNIVERSITY OF TEXAS SYSTEM, priority 2015, dated 2020)
